Here are results for 16 molecules from patent US20090062223A1, “AMINO TRICYCLIC-NUCLEOSIDE COMPOUNDS, COMPOSITIONS, AND METHODS OF USE” (GENELABS TECHNOLOGIES, INC., priority 2007, published 2009).

In brackets after ≈: the same amount, converted by molar mass.

Test system in one series: not listed separately
Put plainly: Solubility (shaking flask). Type of series: physicochemical. To be noted: phosphate buffer solution (PBS), aqueous buffer, thermodynamic from solid; PBS; 37° C. for 24 hours. The procedure: The solubility for certain compounds were determined using the following protocol and procedure. 1) The solution, sterile water or phosphate buffer solution (PBS), was added to the test compound tube to make the final concentration 10 mg/mL. 2) The sample tube was vortexed and incubated at 37° C. for 24 hours. During the incubation period, the sample tube was vortexed several times. 3) After the incubation, vortex the tube and centrifuge the tube at 13,000 rpm for 10 mins using an Eppendorf Centrifuge Model 5415C. If the solution was still cloudy, centrifuge it for longer until a clear supernatant was achieved. 4) The supernatant was diluted to 1×, 10× and 100× in 50% ACN in water. 5) A six point standard curve was prepared separately to make the final concentrations of 1 μg/mL, 5 μg/mL, 10 μg/mL, 20 μg/mL, 40 μg/mL and 60 μg/mL. 6) Samples were quantified using an HPLC with UV detector. 7) From the three concentrations of 1×, 10× and 100× supernatant, choose the value, which was fallen into the standard curve range (1 ug/mL-60 ug/mL), as the final result. If all the results were out of the curve range, adjust using a dilution factor to make the value within the curve range.
Regarding `CC(C)C(=O)OCOC(=O)NC1=CC(=O)Nc2ncnc3c2c1cn3[C@@H]1O[C@H](CO)[C@@H](OC(=O)C(C)C)C1(C)O` (stereo partly shown) [Compound 125, Isobutyric acid 4-hydroxy-2-hydroxymethyl-5-(9-isobutyryloxymethoxycarbonyl-amino-7-oxo-6,7-dihydro-2,3,5,6-tetraaza-benzo[cd]azulen-2-yl)-4-methyl-tetrahydro-furan-3-yl ester], the solubility at 24 h amounted to 51 µg/mL (≈ 90.8 µM). Still for that read-out and setting: the same measure for `Cc1oc(=O)oc1COC(=O)NC1=CC(=O)Nc2ncnc3c2c1cn3[C@@H]1O[C@H](CO)[C@@H](O)C1(C)O` (stereo partly shown) [Compound 126, [2-(3,4-Dihydroxy-5-hydroxymethyl-3-methyl-tetrahydro-furan-2-yl)-7-oxo-6,7-dihydro-2H-2,3,5,6-tetraaza-benzo[cd]azulen-9-yl]-carbamic acid5-methyl-2-oxo-[1,3]dioxol-4-ylmethyl ester]: 40 µg/mL (≈ 79.5 µM). Same read-out and setting: the value for `CCC(=O)OC[C@H]1O[C@@H](n2cc3c4c(ncnc42)NC(=O)C=C3N)C(C)(O)[C@@H]1O` (stereo in doubt) [Compound 131, Propionic acid 5-(9-amino-7-oxo-6,7-dihydro-2,3,5,6-tetraaza-benzo[cd]azulen-2-yl)-3,4-dihydroxy-4-methyl-tetrahydro-furan-2-ylmethylester] was 8060 µg/mL (≈ 20000 µM).

In turn, `CC(=O)O[C@@H]1[C@@H](CO)O[C@@H](n2cc3c4c(ncnc42)NC(=O)C=C3N)C1(C)O` (stereo in doubt) [Compound 114, Acetic acid 5-(9-amino-7-oxo-6,7-dihydro-2,3,5,6-tetraaza-benzo[cd]azulen-2-yl)-4-hydroxy-2-hydroxymethyl-4-methyl-tetrahydro-furan-3-yl ester] had a solubility at 24 h of 2950 µg/mL (≈ 7580 µM).

As to `CCCCCC(=O)OC[C@H]1O[C@@H](n2cc3c4c(ncnc42)NC(=O)C=C3N)[C@@](C)(O)[C@@H]1OC(=O)CCCCC` (stereo in doubt) [Compound 102, Hexanoic acid 5-(9-amino-7-oxo-6,7-dihydro-2,3,5,6-tetraaza-benzo[cd]azulen-2-yl)-3-hexanoyloxy-4-hydroxy-4-methyl-tetrahydro-furan-2-ylmethyl ester], the solubility at 24 h was found to be 11 µg/mL (≈ 20.2 µM).

The molecule `CC(=O)OCOC(=O)NC1=CC(=O)Nc2ncnc3c2c1cn3[C@@H]1O[C@H](COC(=O)C(C)C)[C@@H](OC(=O)C(C)C)[C@@]1(C)O` [Compound 111, Isobutyric acid 5-(9-acetoxymethoxycarbonylamino-7-oxo-6,7-dihydro-2,3,5,6-tetraaza-benzo[cd]azulen-2-yl)-4-hydroxy-2-isobutyryloxymethyl-4-methyl-tetrahydro-furan-3-yl ester] showed a solubility at 24 h of 2 µg/mL (≈ 3.31 µM).

The molecule `CC(=O)OCOC(=O)NC1=CC(=O)Nc2ncnc3c2c1cn3[C@@H]1O[C@H](COC(C)=O)C(OC(C)=O)[C@@]1(C)O` (stereo in doubt) [Compound 120, Acetic acid 3-acetoxy-5-(9-acetoxymethoxycarbonylamino-7-oxo-6,7-dihydro-2,3,5,6-tetraaza-benzo[cd]azulen-2-yl)-4-hydroxy-4-methyl-tetrahydro-furan-2-ylmethylester] displayed a solubility at 24 h of 60 µg/mL (≈ 110 µM). Same read-out and setting: the same measure for `CC(=O)OC[C@H]1O[C@@H](n2cc3c4c(ncnc42)NC(=O)C=C3N)[C@@](C)(O)[C@@H]1O` (stereo in doubt) [Compound 107, Acetic acid 5-(9-amino-7-oxo-6,7-dihydro-2,3,5,6-tetraaza-benzo[cd]azulen-2-yl)-3,4-dihydroxy-4-methyl-tetrahydro-furan-2-ylmethylester]: 9150 µg/mL (≈ 23500 µM); for `CCC(=O)OC[C@H]1O[C@@H](n2cc3c4c(ncnc42)NC(=O)C=C3N)C(C)(OC(=O)CC)[C@@H]1OC(=O)CC` (stereo partly shown) [Compound 127, Propionic acid 5-(9-amino-7-oxo-6,7-dihydro-2,3,5,6-tetraaza-benzo[cd]azulen-2-yl)-4-methyl-3,4-bis-propionyloxy-tetrahydro-furan-2-ylmethyl ester]: 133 µg/mL (≈ 258 µM). Same read-out and setting: the same measure for `CC(C)C(=O)OCOC(=O)NC1=CC(=O)Nc2ncnc3c2c1cn3[C@@H]1O[C@H](CO)[C@@H](OC(=O)[C@@H](N)C(C)C)[C@]1(C)O` [Compound 110, 2-Amino-3-methyl-butyric acid 4-hydroxy-2-hydroxymethyl-5-(9-isobutyryloxymethoxycarbonyl-amino-7-oxo-6,7-dihydro-2,3,5,6-tetraaza-benzo[cd]azulen-2-yl)-4-methyl-tetrahydro-furan-3-yl ester]: 8160 µg/mL (≈ 13800 µM). The same measure, in the same setting: the value for `CCC(=O)OC[C@H]1O[C@@H](n2cc3c4c(ncnc42)NC(=O)C=C3N)C(C)(O)[C@@H]1OC(=O)CC` (stereo in doubt) [Compound 130, Propionic acid 5-(9-amino-7-oxo-6,7-dihydro-2,3,5,6-tetraaza-benzo[cd]azulen-2-yl)-4-hydroxy-4-methyl-3-propionyloxy-tetrahydro-furan-2-ylmethyl ester] was 850 µg/mL (≈ 1850 µM); that for `Cc1oc(=O)oc1COC(=O)NC1=CC(=O)Nc2ncnc3c2c1cn3[C@@H]1O[C@H](COC(=O)C(C)C)[C@@H](OC(=O)C(C)C)C1(C)O` (stereo in doubt) [Compound 119, Isobutyric acid 4-hydroxy-3-isobutyryloxy-4-methyl-5-[9-(5-methyl-2-oxo-[1,3]dioxol-4-ylmethoxycarbonylamino)-7-oxo-6,7-dihydro-2,3,5,6-tetraaza-benzo[cd]azulen-2-yl]-tetrahydro-furan-2-ylmethyl ester] was 6 µg/mL (≈ 9.32 µM). In turn, `CC(C)C(=O)OC[C@H]1O[C@@H](n2cc3c4c(ncnc42)NC(=O)C=C3N)C(C)(OC(=O)C(C)C)[C@@H]1OC(=O)C(C)C` (stereo partly shown) [Compound 132, Isobutyric acid 5-(9-amino-7-oxo-6,7-dihydro-2,3,5,6-tetraaza-benzo[cd]azulen-2-yl)-3,4-bis-isobutyryloxy-4-methyl-tetrahydro-furan-2-ylmethyl ester] had a solubility at 24 h of 44 µg/mL (≈ 78.9 µM). Same read-out and setting: the same measure for `CC(=O)OC1(C)[C@H](OC(=O)C(C)C)[C@@H](COC(=O)C(C)C)O[C@H]1n1cc2c3c(ncnc31)NC(=O)C=C2N` (stereo in doubt) [Compound 133, Isobutyric acid 4-acetoxy-5-(9-amino-7-oxo-6,7-dihydro-2,3,5,6-tetraaza-benzo[cd]azulen-2-yl)-3-isobutyryloxy-4-methyl-tetrahydro-furan-2-ylmethyl ester]: 17 µg/mL (≈ 32.1 µM). On the same count and under the same terms, the same measure for `CC(=O)OC[C@H]1O[C@@H](n2cc3c4c(ncnc42)NC(=O)C=C3NC(=O)OCOC(=O)C(C)C)C(C)(O)[C@@H]1OC(C)=O` (stereo in doubt) [Compound 118, Isobutyric acid 2-(4-acetoxy-5-acetoxymethyl-3-hydroxy-3-methyl-tetrahydro-furan-2-yl)-7-oxo-6,7-dihydro-2H-2,3,5,6-tetraaza-benzo[cd]azulen-9-ylcarbamoyloxymethyl ester]: 60 µg/mL (≈ 104 µM); for `CC(=O)O[C@@H]1[C@@H](CO)O[C@@H](n2cc3c4c(ncnc42)NC(=O)C=C3NC(=O)OCOC(=O)C(C)C)[C@]1(C)O` [Compound 112, Isobutyric acid 2-(4-acetoxy-3-hydroxy-5-hydroxymethyl-3-methyl-tetrahydro-furan-2-yl)-7-oxo-6,7-dihydro-2H-2,3,5,6-tetraaza-benzo[cd]azulen-9-ylcarbamoyloxymethyl ester]: 80 µg/mL (≈ 150 µM).

The next series relates to Caco-2 cells. In words: in vitro. Type of series: in vitro ADME.
Conditions: not given
The procedure:
Caco-2 cells were maintained in Dulbecco's Modification of Eagle's Medium (DMEM) with sodium pyruvate, Glutmax supplemented with 1% Pen/Strep, 1% NEAA and 10% fetal bovine serum in an incubator set at 37° C., 90% humidity and 5% CO2. Caco-2 cells between passage 43 and 61 were grown to confluence over at least 21-days on 24 well PET (polyethylene-terephthalate) plates (BD Biosciences). Experiments were run using a new HBSS donor buffer from Invitrogen containing additional 10 mM HEPES, 15 mM Glucose with pH adjusted to pH 6.5. The receiver well used HBSS buffer supplemented with 1% BSA and the pH adjusted to pH 7.4. After an initial equilibration with transport buffer, TEER values were read to test membrane integrity. The experiment was started by the addition of buffers containing test compounds and 100 μl of solution is taken at 1 and 2 hrs from the receiver compartment. Removed buffer was replaced with fresh buffer and a correction was applied to all calculations for the removed material. Each compound was tested in 2 separate replicate wells for each condition. All samples were immediately collected into 400 μl 100% acetonitrile acid to precipitate protein and stabilize test compounds. Cells were dosed on the apical or basolateral side to determine forward (A to B) and reverse (B to A) permeability. Permeability through a cell free trans-well was also determined as a measure of cellular permeability through the membrane and non-specific binding. To test for non-specific binding and compound instability the total amount of drug was quantitated at the end of the experiment and compared to the material present in the original dosing solution as a percent recovery. Samples were analyzed by LC/MS/MS.
The apparent permeability, Papp, and % recovery were calculated as follows: […]
where, • dR/dt is the slope of the cumulative concentration in the receiver compartment versus time in μM/s based on receiver concentrations measured at 60 and 120 minute. • Vr and Vd is the volume in the receiver and donor compartment in cm^3, respectively. • A is the area of the cell monolayer (0.33 cm^2). • D0 and D120 is the measured donor concentration at the beginning and end of the experiment, respectively. • R120 is the receiver concentration at the end of the experiment (120 minutes).
The apparent permeability for certain compounds were determined using the above procedure.
On to `CC(=O)O[C@@H]1[C@@H](CO)O[C@@H](n2cc3c4c(ncnc42)NC(=O)C=C3N)C1(C)O` (stereo in doubt) [Compound 114, Acetic acid 5-(9-amino-7-oxo-6,7-dihydro-2,3,5,6-tetraaza-benzo[cd]azulen-2-yl)-4-hydroxy-2-hydroxymethyl-4-methyl-tetrahydro-furan-3-yl ester], for which the “Permeability Papp (A to B) × 10^−6 cm/s (Caco-2 A-B)” value is given as “medium”. The same measure, in the same setting: the value for `CCCCCC(=O)OC[C@H]1O[C@@H](n2cc3c4c(ncnc42)NC(=O)C=C3N)[C@@](C)(O)[C@@H]1OC(=O)CCCCC` (stereo in doubt) [Compound 102, Hexanoic acid 5-(9-amino-7-oxo-6,7-dihydro-2,3,5,6-tetraaza-benzo[cd]azulen-2-yl)-3-hexanoyloxy-4-hydroxy-4-methyl-tetrahydro-furan-2-ylmethyl ester] was “high”; that for `CC(=O)OC[C@H]1O[C@@H](n2cc3c4c(ncnc42)NC(=O)C=C3N)[C@@](C)(O)[C@@H]1O` (stereo in doubt) [Compound 107, Acetic acid 5-(9-amino-7-oxo-6,7-dihydro-2,3,5,6-tetraaza-benzo[cd]azulen-2-yl)-3,4-dihydroxy-4-methyl-tetrahydro-furan-2-ylmethylester] was “low”.
